PubChem BioAssay AID1259407 (Chemical Carcinogenesis Research Information System (CCRIS), 2018)
Activity calls are given as the source filed them. No rule for the calls is given here.

Test system: CCRIS mutagenicity, Ames/micronucleus/aberration tests
Assay: CCRIS mutagenicity studies
[1] = Test System: AMES SALMONELLA TYPHIMURIUM, Strain/Indicator: TA1537, Metabolic Activation: NONE, Method: STANDARD PLATE
[2] = Test System: AMES SALMONELLA TYPHIMURIUM, Strain/Indicator: TA98, Metabolic Activation: NONE, Method: STANDARD PLATE

O=C(Nc1ccc([N+](=O)[O-])cc1Cl)c1cc(Cl)ccc1O
mutagenic call (Test System: AMES SALMONELLA TYPHIMURIUM, Strain/Indicator: TA98(NR), Metabolic Activation: RAT, LIVER, S-9, AROCLOR 1254, Method: STANDARD PLATE): inactive; negative
mutagenic call (Test System: AMES SALMONELLA TYPHIMURIUM, Strain/Indicator: TA98, Metabolic Activation: NONE, Method: PREINCUBATION): inactive; negative
mutagenic call (Test System: AMES SALMONELLA TYPHIMURIUM, Strain/Indicator: TA98, Metabolic Activation: RAT, LIVER, S-9, AROCLOR 1254, Method: PREINCUBATION): active; positive
mutagenic call (Test System: AMES SALMONELLA TYPHIMURIUM, Strain/Indicator: TA1538, Metabolic Activation: NONE, Method: PREINCUBATION): inactive; negative
mutagenic call (Test System: AMES SALMONELLA TYPHIMURIUM, Strain/Indicator: TA1538, Metabolic Activation: RAT, LIVER, S-9, AROCLOR 1254, Method: PREINCUBATION): active; positive
mutagenic call (Test System: AMES SALMONELLA TYPHIMURIUM, Strain/Indicator: TA1978, Metabolic Activation: NONE, Method: PREINCUBATION): inactive; negative
mutagenic call (Test System: AMES SALMONELLA TYPHIMURIUM, Strain/Indicator: TA1978, Metabolic Activation: RAT, LIVER, S-9, AROCLOR 1254, Method: PREINCUBATION): inactive; negative
mutagenic call (Test System: AMES SALMONELLA TYPHIMURIUM, Strain/Indicator: UTH8413, Metabolic Activation: NONE, Method: PREINCUBATION): inactive; negative
mutagenic call (Test System: AMES SALMONELLA TYPHIMURIUM, Strain/Indicator: UTH8413, Metabolic Activation: RAT, LIVER, S-9, AROCLOR 1254, Method: PREINCUBATION): inactive; negative
mutagenic call (Test System: AMES SALMONELLA TYPHIMURIUM, Strain/Indicator: YG1020, Metabolic Activation: RAT, LIVER, S-9, AROCLOR 1254, Method: STANDARD PLATE): active; positive
mutagenic call (Test System: AMES SALMONELLA TYPHIMURIUM, Strain/Indicator: YG1021, Metabolic Activation: RAT,LIVER, S-9, AROCLOR 1254, Method: STANDARD PLATE): active; positive
mutagenic call (Test System: AMES SALMONELLA TYPHIMURIUM, Strain/Indicator: YG1024, Metabolic Activation: RAT, LIVER, S-9, AROCLOR 1254, Method: STANDARD PLATE): active; positive

COc1cc(NS(C)(=O)=O)ccc1Nc1c2ccccc2nc2cc(N=[N+]=[N-])ccc12
mutagenic call [1]: active; positive

CCC1=C(C(=O)OC)C(=O)OC1C (centres undefined)
mutagenic call (Test System: AMES SALMONELLA TYPHIMURIUM, Strain/Indicator: TA98, Metabolic Activation: NONE, Method: DISK ASSAY): inactive; negative
mutagenic call [2]: active; positive
mutagenic call (Test System: AMES SALMONELLA TYPHIMURIUM, Strain/Indicator: TA98, Metabolic Activation: RAT, LIVER, S-9, AROCLOR 1254, Method: DISK ASSAY): inactive; negative
mutagenic call (Test System: AMES SALMONELLA TYPHIMURIUM, Strain/Indicator: TA98, Metabolic Activation: RAT, LIVER, S-9, AROCLOR 1254, Method: STANDARD PLATE): active; positive

COc1cc2nc3occc3c(OC)c2cc1OC
mutagenic call (Test System: AMES SALMONELLA TYPHIMURIUM, Strain/Indicator: TA98, Metabolic Activation: RAT, LIVER, S-9, PHENOBARBITAL, Method: STANDARD PLATE): active; positive
mutagenic call (Test System: AMES SALMONELLA TYPHIMURIUM, Strain/Indicator: TA100, Metabolic Activation: RAT, LIVER, S-9, PHENOBARBITAL, Method: STANDARD PLATE): active; positive

O=[N+]([O-])c1cc(Cl)cc(Sc2cc(Cl)cc([N+](=O)[O-])c2O)c1O
mutagenic call [2]: inactive; negative
mutagenic call (Test System: AMES SALMONELLA TYPHIMURIUM, Strain/Indicator: TA98, Metabolic Activation: RAT, LIVER, S-9, KANECHLOR 400, Method: STANDARD PLATE): inactive; negative
mutagenic call (Test System: AMES SALMONELLA TYPHIMURIUM, Strain/Indicator: TA100, Metabolic Activation: NONE, Method: STANDARD PLATE): inactive; negative
mutagenic call (Test System: AMES SALMONELLA TYPHIMURIUM, Strain/Indicator: TA100, Metabolic Activation: RAT, LIVER, S-9, KANECHLOR 400, Method: STANDARD PLATE): inactive; negative
mutagenic call (Test System: AMES SALMONELLA TYPHIMURIUM, Strain/Indicator: TA1535, Metabolic Activation: NONE, Method: STANDARD PLATE): inactive; negative
mutagenic call (Test System: AMES SALMONELLA TYPHIMURIUM, Strain/Indicator: TA1535, Metabolic Activation: RAT, LIVER, S-9, KANECHLOR 400, Method: STANDARD PLATE): inactive; negative
mutagenic call [1]: inactive; negative
mutagenic call (Test System: AMES SALMONELLA TYPHIMURIUM, Strain/Indicator: TA1537, Metabolic Activation: RAT, LIVER, S-9, KANECHLOR 400, Method: STANDARD PLATE): inactive; negative
mutagenic call (Test System: AMES SALMONELLA TYPHIMURIUM, Strain/Indicator: TA1538, Metabolic Activation: NONE, Method: STANDARD PLATE): inactive; negative
mutagenic call (Test System: AMES SALMONELLA TYPHIMURIUM, Strain/Indicator: TA1538, Metabolic Activation: RAT, LIVER, S-9, KANECHLOR 400, Method: STANDARD PLATE): inactive; negative

Nc1ccn([C@@H]2CS[C@H](CO)O2)c(=O)n1
mutagenic call (Test System: Human TK6 Lymphoblastoid Cells, Strain/Indicator: HPRT, Metabolic Activation: None, Method: Standard Plate): active; positive
mutagenic call (Test System: Human TK6 Lymphoblastoid Cells, Strain/Indicator: TK, Metabolic Activation: None, Method: Standard Plate): active; positive
mutagenic call (Test System: Mouse lymphoma, Strain/Indicator: L5178Y (tk+/tk-), Metabolic Activation: None, Method: Suspension/plate): inactive; negative
mutagenic call (Test System: Mouse lymphoma, Strain/Indicator: L5178Y (tk+/tk-), Metabolic Activation: Rat, Liver, S-9, Aroclor 1254, Method: Suspension/plate): inactive; negative

Nc1c(O)cccc1C(=O)O
mutagenic call (Test System: AMES SALMONELLA TYPHIMURIUM, Strain/Indicator: TA100, Metabolic Activation: NONE, Method: PREINCUBATION): inactive; negative
